# In US8653031B2, “Process for the preparation of compositions of AT1 receptor antagonist and Angiotensin—(1-7)” (Universidade Federal de Minas Gerais, priority 2006, dated 2014):
# Legend:
# [1] = molecular target: ACE (Homo sapiens, UniProt P12821); settings: read-out: IC50 for ACE inhibition; cited from earlier work
# [2] = system: spontaneously hypertensive rats (SHR); assay: Antihypertensive test: blood pressure recorded by telemetry in SHR after oral administration; format: in vivo, rat
# Procedure: Male, spontaneously hypertensive rats (SHR) were used, with initial age of 14-16 weeks, from the Centro de Bioterismo (CEBIO, Federal University of Minas Gerais). The animals were kept with free access to food and water and were submitted to a light-dark cycle (12 hours each).
# After anesthesia with tribromoethanol (0.25 g/Kg body weight), trichotomy of the abdominal region and local asepsis was made. After adjustment of the surgical field, a median incision of 4 to 6 cm was performed in the abdomen with the implantation of the transducer catheter in the abdominal aorta. After surgery, a veterinary pentabiotic was administered (0.1 ml) via intramuscular route (i.m.). […]
# Records of the cardiovascular parameters, average blood pressure and heart rate were obtained by a telemetry data acquisition system (Data Science International). This monitoring system consists of 4 basic elements: (A) a sensor catheter (model—TA11PA-C40) which was inserted into the animal's abdominal aorta for collection, processing and transmission of pulsatile blood pressure; (B) a receiving signal plate (RPC-1); (C) a muliplexor that received the signal from several receiving plates and sent them to (D) the data acquisition system itself, which collected, stored and analyzed the data by means of a specific software, ART-Gold v. […]
# The acute cardiovascular effects of administering the LA compound were determined. […]
# Chain of ACE (P12821 30-1306, species assumed): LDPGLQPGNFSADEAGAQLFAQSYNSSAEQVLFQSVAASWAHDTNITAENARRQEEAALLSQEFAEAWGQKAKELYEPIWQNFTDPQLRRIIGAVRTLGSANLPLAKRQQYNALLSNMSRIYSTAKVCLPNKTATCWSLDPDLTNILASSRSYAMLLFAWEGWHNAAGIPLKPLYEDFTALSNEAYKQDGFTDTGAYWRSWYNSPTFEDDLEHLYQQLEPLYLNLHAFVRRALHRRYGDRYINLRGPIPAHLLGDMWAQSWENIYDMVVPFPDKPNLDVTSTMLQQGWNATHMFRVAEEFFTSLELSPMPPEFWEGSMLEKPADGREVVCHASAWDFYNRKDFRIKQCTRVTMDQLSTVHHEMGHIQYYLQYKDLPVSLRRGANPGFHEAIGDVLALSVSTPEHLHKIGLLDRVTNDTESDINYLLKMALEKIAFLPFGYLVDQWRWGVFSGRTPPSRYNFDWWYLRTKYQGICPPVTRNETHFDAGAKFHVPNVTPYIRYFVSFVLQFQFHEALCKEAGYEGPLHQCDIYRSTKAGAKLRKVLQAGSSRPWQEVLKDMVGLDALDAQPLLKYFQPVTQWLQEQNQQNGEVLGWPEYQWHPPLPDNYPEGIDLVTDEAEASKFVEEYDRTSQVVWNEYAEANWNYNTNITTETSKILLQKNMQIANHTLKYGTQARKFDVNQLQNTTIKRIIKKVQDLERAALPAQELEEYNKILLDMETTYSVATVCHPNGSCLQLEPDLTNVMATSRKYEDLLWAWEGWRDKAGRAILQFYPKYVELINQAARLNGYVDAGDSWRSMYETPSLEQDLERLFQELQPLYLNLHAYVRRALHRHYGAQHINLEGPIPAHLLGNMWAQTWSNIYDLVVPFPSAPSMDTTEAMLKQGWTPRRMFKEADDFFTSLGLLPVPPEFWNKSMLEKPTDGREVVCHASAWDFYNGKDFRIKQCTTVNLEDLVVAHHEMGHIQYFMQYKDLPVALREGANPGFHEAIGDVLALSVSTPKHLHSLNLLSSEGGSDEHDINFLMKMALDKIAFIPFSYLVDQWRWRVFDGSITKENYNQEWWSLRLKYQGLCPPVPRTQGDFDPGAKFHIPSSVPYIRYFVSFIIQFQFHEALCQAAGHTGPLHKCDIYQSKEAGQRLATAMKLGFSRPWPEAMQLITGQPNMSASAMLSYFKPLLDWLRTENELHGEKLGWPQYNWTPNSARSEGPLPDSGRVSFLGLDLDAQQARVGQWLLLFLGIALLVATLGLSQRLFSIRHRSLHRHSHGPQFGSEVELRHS
Compound,IC50 [1],"reduction in the average blood pressure ([2]; n=2, single oral dose equivalent to 1 mg Kg/day of losartan, after 5 hours (maximum for test compound))",duration of the blood pressure lowering effect ([2]; single oral dose equivalent to 1 mg Kg/day of losartan)
"DRVYIHP [Ang-(1-7), Asp-Arg-Val-Tyr-Ile-His-Pro, heptapeptide of the renin-angiotensin system]",~1000 nM,,
CCCCc1nc(Cl)c(CO)n1Cc1ccc(-c2ccccc2-c2nn[nH]n2)cc1 [losartan],,−10 mmHg,12 h
